Source: patent US20190054019A1, “METHODS FOR USING REGULATORS FOR INCREASING THE EXPRESSION OR ACTIVATION OF P53 AND/OR REGULATORS FOR REDUCING OR INHIBITING THE EXPRESSION OF P63-ALPHA, FOR THE TREATMENT OF NON-ALCOHOLIC FATTY LIVER DISEASE (NAFLD) AND/OR NON-ALCOHOLIC STEATOHEPATITIS (NASH)” (Universidade de Santiago de Compostela, priority 2015, published 2019)

Columns and labels:
HepG2 = assay: Accumulation of lipids induced by oleic acid in human hepatocytes (HepG2); type: cell-based; settings: 48 h
Method: The hepatocyte cell line of human origin HepG2 was treated with bovine serum albumin (BSA, which represents the control group), oleic acid (OA) and 50 nM oleic acid+doxorubicin for 48 h.

[1] = system: mice of the C57/B6 strain fed with a HFD; assay: Doxorubicin in C57/B6 mice fed HFD (60% fat); type: in vivo; settings: 0.6 mg/kg i.p. twice per week, two months
Method: Subsequently, mice were administered a dose of 0.6 mg/kg intra-peritoneally twice per week during a further period of two months.

[2] = Doxorubicin intraperitoneal for 5 days in Swiss mice on standard diet: body weight; type: in vivo, mice of the Swiss strain
HepG2 cells = assay: Response of HepG2 cells (control or p53 negative dominant) to etoposide; type: cell-based, human
From the text: FIG. 9. Effect of p53 silencing in HepG2 cells. (A) Efficiency of the down-regulation of p53 in HepG2 cells transfected with adenoviruses expressing GFP alone or adenoviruses encoding a p53 negative dominant. (B) Oil red staining in HepG2 cells treated with etoposide at different concentrations. (C) Representative western blot of protein levels of peIF2α and Xbp1 in HepG2 cells non-treated and treated with etoposide. *p<0.05, n=4 per group.
HepG2 cells were infected with adenoviruses expressing GFP alone or adenoviruses encoding a p53 negative dominant and treated with etoposide.
HepG2 cells were infected with adenoviruses expressing GFP alone or adenoviruses encoding a p53 negative dominant. Infection efficiency was assessed by decreased expression of phosphor-p53 (pp53) (FIG. 9A). In order to investigate the response of control cells and cells with silenced p53, we challenged them to etoposide, a well established compound that induces stress.

[3] = 0.6 mg/kg i.p. twice per week, 2 months
[4] = 0.6 mg/kg, two months, vs control vehicle
[5] = HepG2 cells treated with etoposide

COc1cccc2c1C(=O)c1c(O)c3c(c(O)c1C2=O)C[C@@](O)(C(=O)CO)C[C@@H]3O[C@H]1C[C@H](N)[C@H](O)[C@H](C)O1 [doxorubicin]
amount of lipids in the cells vs cells treated with oleic acid (HepG2; 50 nM oleic acid+doxorubicin): significant decrease in the amount of lipids
body composition: muscle mass (HFD-induced obese mice; [3]): without altering the muscle mass
body composition: quantity of fat (HFD-induced obese mice; [3]): reduce quantity of fat
levels of troponine (marker of cardiovascular damage) (HFD-induced obese mice; 0.6 mg/kg i.p., serum): fails to significantly increase
hepatic damage (histological study) (HFD-induced obese mice; 0.6 mg/kg, two months): reduced hepatic damage
liver expression of inflammatory markers TNF-α, arginase, IL-6, NOS2 and F480 (HFD-induced obese mice; 0.6 mg/kg, two months, mRNA): reduces the expression
level of non-esterified fatty acids in the liver (HFD-induced obese mice; [4]): increased
level of triglycerides in the liver (HFD-induced obese mice; [4]): reduced
liver protein levels of ER stress genes pIRE, XBP1, CHOP, pJNK (HFD-induced obese mice; 0.6 mg/kg, two months, western blot): reduced the protein levels
body weight (HFD-induced obese mice; all studied dosages (0.15, 0.3, 0.6, 1.25 mg/kg) i.p. twice per week, 2 months): significant loss of body weight
body weight [1]: reduced their body weight significantly
hepatic tryglicerides [1]: significantly reduced
body weight change ([2]; 0.3, 0.6, 1.25, 2.5 and 5 mg/kg intraperitoneal, 1 injection/day, dose dependent): significant loss of weight
dosages capable of reducing the body weight significantly ([2]; intraperitoneal): ≥ 0.6 mg/kg

COc1cc([C@@H]2c3cc4c(cc3[C@@H](O[C@@H]3O[C@@H]5CO[C@@H](C)O[C@H]5[C@H](O)[C@H]3O)[C@H]3COC(=O)[C@H]23)OCO4)cc(OC)c1O [etoposide]
ER stress markers peIF2α and XBP1 in cells with silenced p53 vs control cells (HepG2 cells; [5]): higher levels
amount of lipid droplets in p53 dominant negative-infected cells vs control cells (HepG2 cells; [5]): increased amount of lipid droplets
lipid deposition (oil red staining) (HepG2 cells; HepG2 cells, dose-dependent): increased lipid deposition

CCCCCCCC/C=C\CCCCCCCC(=O)O [oleic acid]
amount of lipids in the cells vs BSA control (HepG2; oleic acid): significantly increases the amount of lipids
